Like-named read-outs stand apart in the source and are kept apart here. Starred links: 1 amine or outer side, 2 acyl side, 3 side chain; linkers in the order of their positions; H or OH if unused. Positions of bridges follow the written chain, without caps; N, C: chain ends. Non-standard residues stand in square brackets, D forms with d. Residues, ends and D or L forms follow the SMILES beside them. Groups on a side chain read outwards from the residue. *: point of attachment. Cholyl = C[C@H](CCC(=O)*)[C@H]1CC[C@H]2[C@@H]3[C@H](O)C[C@@H]4C[C@H](O)CC[C@]4(C)[C@H]3C[C@H](O)[C@]12C; X27 = O=C(Cn1cc(C[C@H](N[*:1])C(=O)[*:2])c2ccccc21)Oc1ccccc1; X30 = CCCCCCOC(=O)Cn1cc(C[C@H](N[*:1])C(=O)[*:2])c2ccccc21; X4 = O=C(Cn1cc(C[C@H](N[*:1])C(=O)[*:2])c2ccccc21)OCCOCCO; X34 = CCCCOC(=O)Cn1cc(C[C@H](N[*:1])C(=O)[*:2])c2ccccc21; X37 = O=C(Cn1cc(C[C@H](N[*:1])C(=O)[*:2])c2ccccc21)OCCO; Pro(4R-Me) = C[C@H]1CN[C@H](C(=O)O)C1; Hyp = O=C(O)[C@@H]1C[C@@H](O)CN1; NMeNle = CCCC[C@H](NC)C(=O)O; NMeA = CN[C@@H](C)C(=O)O; Dab = NCC[C@H](N)C(=O)O; Dap = NC[C@H](N)C(=O)O
Molecular target: T1, PD-1/PD-L1 (Homo sapiens, UniProt Q9NZQ7)
T1 construct: TVMV protease site (C); made in house; host or cells: HEK293T cells
T1 sequence (Q9NZQ7 18-239): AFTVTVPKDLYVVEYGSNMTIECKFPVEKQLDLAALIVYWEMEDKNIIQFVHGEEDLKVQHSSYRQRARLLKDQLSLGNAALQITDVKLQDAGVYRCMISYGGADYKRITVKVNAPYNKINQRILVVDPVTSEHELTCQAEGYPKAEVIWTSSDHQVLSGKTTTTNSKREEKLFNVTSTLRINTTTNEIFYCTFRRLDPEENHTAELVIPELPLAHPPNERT
Test: PD-1/PD-L1 Homogenous Time-Resolved Fluorescence (HTRF) binding assay
Details: PD-1-Ig 20 nM
Summary of the method: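 Inhibitors pre-incubated 15 min with PD-L1-His (10 nM final) in dPBS, 0.1% BSA, 0.05% Tween-20, then 15 min with PD-1-Ig (20 nM final). Eu-cryptate anti-Ig (1 nM) and APC anti-His (20 nM) added, 30 min equilibration; HTRF 665/620 nm ratio. Human ECD proteins from HEK293T.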

[1] = PD-L1-His 10 nM, read-out: HTRF IC50

Structure (SMILES)	IC50 [1] [nM]	IC50 (HTRF IC50, PD-L1-His 10 nM) [nM]
CCCCOC(=O)Cn1cc(C[C@@H]2NC(=O)[C@H](CCNC(=O)CNC(=O)CC[C@@H](C)[C@H]3CC[C@H]4[C@@H]5[C@H](O)C[C@@H]6C[C@H](O)CC[C@]6(C)[C@H]5C[C@H](O)[C@]34C)NC(=O)[C@H](Cc3c[nH]c4ccccc34)NC(=O)[C@@H]3C[C@@H](C)CN3C(=O)[C@H](CC(C)C)NC(=O)[C@H](CNC(=O)CNC(=O)CC[C@@H](C)[C@H]3CC[C@H]4[C@@H]5[C@H](O)C[C@@H]6C[C@H](O)CC[C@]6(C)[C@H]5C[C@H](O)[C@]34C)NC(=O)[C@@H]3CCCN3C(=O)[C@H](CC(N)=O)NC(=O)[C@H](C)N(C)C(=O)[C@H](Cc3ccc(O)cc3)NC(=O)CSC[C@@H](C(=O)NCC(N)=O)NC(=O)[C@H](CC(C)C)NC(=O)[C@H](CCCC)N(C)C(=O)[C@H](CCCC)N(C)C2=O)c2ccccc21 [Example 2033] ({CH2CO}-Y[NMeA]NP[Dap]([Gly-Cholyl])L[Pro(4R-Me)]W[Dab]([Gly-Cholyl])[X34][NMeNle][NMeNle]LCG-NH2; thioether N-14)	4.2	
CCCCCCOC(=O)Cn1cc(C[C@@H]2NC(=O)[C@H](CCNC(=O)CNC(=O)CC[C@@H](C)[C@H]3CC[C@H]4[C@@H]5[C@H](O)C[C@@H]6C[C@H](O)CC[C@]6(C)[C@H]5C[C@H](O)[C@]34C)NC(=O)[C@H](Cc3c[nH]c4ccccc34)NC(=O)[C@@H]3C[C@@H](C)CN3C(=O)[C@H](CC(C)C)NC(=O)[C@H](CNC(=O)CNC(=O)CC[C@@H](C)[C@H]3CC[C@H]4[C@@H]5[C@H](O)C[C@@H]6C[C@H](O)CC[C@]6(C)[C@H]5C[C@H](O)[C@]34C)NC(=O)[C@@H]3CCCN3C(=O)[C@H](CC(N)=O)NC(=O)[C@H](C)N(C)C(=O)[C@H](Cc3ccc(O)cc3)NC(=O)CSC[C@@H](C(=O)NCC(N)=O)NC(=O)[C@H](CC(C)C)NC(=O)[C@H](CCCC)N(C)C(=O)[C@H](CCCC)N(C)C2=O)c2ccccc21 [Example 2034] ({CH2CO}-Y[NMeA]NP[Dap]([Gly-Cholyl])L[Pro(4R-Me)]W[Dab]([Gly-Cholyl])[X30][NMeNle][NMeNle]LCG-NH2; thioether N-14)	5200	
CCCC[C@H]1C(=O)N(C)[C@@H](CCCC)C(=O)N[C@@H](CC(C)C)C(=O)N[C@H](C(=O)NCC(N)=O)CSCC(=O)N[C@@H](Cc2ccc(O)cc2)C(=O)N(C)[C@@H](C)C(=O)N[C@@H](CC(N)=O)C(=O)N2CCC[C@H]2C(=O)N[C@@H](CNC(=O)CNC(=O)CC[C@@H](C)[C@H]2CC[C@H]3[C@@H]4[C@H](O)C[C@@H]5C[C@H](O)CC[C@]5(C)[C@H]4C[C@H](O)[C@]23C)C(=O)N[C@@H](CC(C)C)C(=O)N2C[C@H](C)C[C@H]2C(=O)N[C@@H](Cc2c[nH]c3ccccc23)C(=O)N[C@@H](CCNC(=O)CNC(=O)CC[C@@H](C)[C@H]2CC[C@H]3[C@@H]4[C@H](O)C[C@@H]5C[C@H](O)CC[C@]5(C)[C@H]4C[C@H](O)[C@]23C)C(=O)N[C@@H](Cc2cn(CC(=O)OCCO)c3ccccc23)C(=O)N1C [Example 2035] ({CH2CO}-Y[NMeA]NP[Dap]([Gly-Cholyl])L[Pro(4R-Me)]W[Dab]([Gly-Cholyl])[X37][NMeNle][NMeNle]LCG-NH2; thioether N-14)	830	
CCCC[C@H]1C(=O)N(C)[C@@H](CCCC)C(=O)N[C@@H](CC(C)C)C(=O)N[C@H](C(=O)NCC(N)=O)CSCC(=O)N[C@@H](Cc2ccc(O)cc2)C(=O)N(C)[C@@H](C)C(=O)N[C@@H](CC(N)=O)C(=O)N2CCC[C@H]2C(=O)N[C@@H](CNC(=O)CNC(=O)CC[C@@H](C)[C@H]2CC[C@H]3[C@@H]4[C@H](O)C[C@@H]5C[C@H](O)CC[C@]5(C)[C@H]4C[C@H](O)[C@]23C)C(=O)N[C@@H](CC(C)C)C(=O)N2C[C@H](C)C[C@H]2C(=O)N[C@@H](Cc2c[nH]c3ccccc23)C(=O)N[C@@H](CCNC(=O)CNC(=O)CC[C@@H](C)[C@H]2CC[C@H]3[C@@H]4[C@H](O)C[C@@H]5C[C@H](O)CC[C@]5(C)[C@H]4C[C@H](O)[C@]23C)C(=O)N[C@@H](Cc2cn(CC(=O)OCCOCCO)c3ccccc23)C(=O)N1C [Example 2036] ({CH2CO}-Y[NMeA]NP[Dap]([Gly-Cholyl])L[Pro(4R-Me)]W[Dab]([Gly-Cholyl])[X4][NMeNle][NMeNle]LCG-NH2; thioether N-14)	1000	
CCCC[C@H]1C(=O)N(C)[C@@H](CCCC)C(=O)N[C@@H](CC(C)C)C(=O)N[C@H](C(=O)NCC(N)=O)CSCC(=O)N[C@@H](Cc2ccc(O)cc2)C(=O)N(C)[C@@H](C)C(=O)N[C@@H](CC(N)=O)C(=O)N2CCC[C@H]2C(=O)N[C@@H](CNC(=O)CNC(=O)CC[C@@H](C)[C@H]2CC[C@H]3[C@@H]4[C@H](O)C[C@@H]5C[C@H](O)CC[C@]5(C)[C@H]4C[C@H](O)[C@]23C)C(=O)N[C@@H](CC(C)C)C(=O)N2C[C@H](O)C[C@H]2C(=O)N[C@@H](Cc2c[nH]c3ccccc23)C(=O)N[C@@H](CCNC(=O)CNC(=O)CC[C@@H](C)[C@H]2CC[C@H]3[C@@H]4[C@H](O)C[C@@H]5C[C@H](O)CC[C@]5(C)[C@H]4C[C@H](O)[C@]23C)C(=O)N[C@@H](Cc2cn(CC(=O)Oc3ccccc3)c3ccccc23)C(=O)N1C [Example 2037] ({CH2CO}-Y[NMeA]NP[Dap]([Gly-Cholyl])L[Hyp]W[Dab]([Gly-Cholyl])[X27][NMeNle][NMeNle]LCG-NH2; thioether N-14)		420

From patent publication US20230183292A1, “IMMUNOMODULATORS” (priority 2020, published 2023)
